The text below walks through data of EP2815749A1, “Solid form of 4-amino-2-(2,6-dioxopiperidine-3-yl)isoindoline-1,3-dione having specified X-ray diffraction pattern” (IP Gesellschaft für Management mbH, priority 2013, dated 2014).

Counter-ions that a name gives are not always drawn. Like-named read-outs stand apart in the source and are kept apart here.

The nature of one data set: physchem. To be noted: thermodynamic from solid.
The conditions of data set [1]: water; listed as free base.
Protocol: Hygroscopicity: Sorption/desorption isotherms were measured using the VT1100 humidity microbalance (VTI Corporation, Hialeah, FL, USA). Measurements were carried out at 25°C. Samples were dried under N2 flow at 25°C. […] Concentration in supernatant was measured by gravimetry for organic solvents and by HPLC from aqueous solvents and propylene glycol.
Data set [2] can be described thus: Equilibration and form conversion experiments of Compound of formula (V). Type of data set: physicochemical. As to conditions: form conversion studies. Here is the method:
Equilibration: Equilibration studies using single, binary and ternary combinations of batch solvents (water, acetone, and acetonitrile) were investigated to mimic key steps in manufacturing 3-(4-nitro-1-oxoisoindolin-2-yl)piperidine-2,6-dione. Materials of 3-(4-nitro-1-oxoisoindolin-2-yl)piperidine-2,6-dione and solvent or solvent mixtures were added to a glass vial to achieve free-flowing slurry and allowed to equilibrate at the specified temperature. After equilibration for 8 days, the solid phase was separated via filtration. The solid phase was then dried under air and analyzed by XRPD. List of Experimental Conditions for Equilibration:
A total of four batches of 3-(4-nitro-1-oxoisoindolin-2-yl)piperidine-2,6-dione were characterized by XRPD, DSC, TGA, ATR-FTIR and DVS, as described in section 6.5. The solid form represented by the batch 1 was designated as Form A ({drug5b}); the solid form represented by the batch 4 was designated as Form B ({drug5c}); the batches 2 and 3 were determined to be mixtures of Forms A and B, with Form B ({drug5c}) dominating the patterns. The equilibration experiments were performed using batches 2, 3 and 4, and the results are described in Table 2. Results for Equilibration Experiments:
Results from Additional Form conversion Experiments: […]

The nature of data set [3]: Hygroscopicity of forms of Compound of formula (V) (DVS). Type of data set: physicochemical. As to conditions: between 0% and 90% relative humidity; 25°C. On the procedure:
Differential Scanning Calorimetry (DSC): DSC analyses were performed on a TA instrument Q2000 Differential Scanning Calorimeter. Indium was used as the calibration standard. Approximately 2-5 mg of sample was placed into a DSC pan. The sample was heated under nitrogen at a rate of 10°C/min, up to a final temperature of 350°C. Melting points were reported as the extrapolated onset temperatures. Thermogravimetric Analysis (TGA): TGA analyses were performed on a TA instrument Q5000 Thermogravimetric Analyzer. Calcium oxalate was used for a performance check. Approximately 2-10 mg of accurately weighed sample was placed on a pan and loaded into the TGA furnace. The sample was heated under nitrogen at a rate of 10°C/min, up to a final temperature of 300°C. Attenuated Total Reflection Fourier-Transform Infrared Analysis (ATR-FTIR): FTIR analyses were performed on the samples "as is" using an attenuated total reflection (ATR) attachment on a Nicolet 6700 FTIR spectrometer. After a background of ambient lab conditions was obtained, samples were placed on the ATR, compressed with the anvil, and spectrum acquired. Miniature Scanning Electron Microscope (Mini SEM) Morphology analysis of the samples was carried out on an Even Mini SEM. Small amounts of samples were dispersed on a sample holder, and then coating with gold viewed with 200x and 1000x magnification. Dynamic Vapor Sorption (DVS) Hygroscopicity was determined on a Surface Measurement Systems DVS. Typically a sample size of 5-30 mg was loaded into the DVS instrument sample pan and the sample was analyzed on a DVS automated sorption analyzer at 25°C. The relative humidity was increased from 0 % to 90 %RH at 10 %RH step. The relative humidity was then decreased in a similar manner to accomplish a full adsorption/desorption cycle. The entire scope of this invention is not limited by the specific examples described herein, but is more readily understood with reference to the appended claims.

Data set [4] in a line: Equilibration and form conversion experiments of Compound of formula (V). Type of data set: physicochemical.
Data set [5] can be described thus: Desolvation of solvate forms of Compound (VII). Format: physicochemical. On the procedure:
Polymorph screening: A polymorph screen was conducted in the methylethyl ketone (MEK)/ water solvent systems, as well as in the acetonitrile (ACN), ACN/water and isopropyl acetate solvent systems. Polymorph screening techniques included crash cooling, solvent evaporation, antisolvent addition, and slurry experiments. Slurry experiments were performed on an IKA RCT hot plate with magnetic stirring set to 710 rpm. The temperature was controlled with an IKA ETS-D5 thermocouple. Solvent volumes were measured and transferred with Gibson Pipetteman volumetric pipettes. New forms that were identified as solvates were subjected to desolvation under two potential conditions: (1) drying in a vacuum oven at 40°C and (2) sitting undisturbed under ambient conditions in a fume hood. Physical characterization of all forms proceeded by X-ray powder diffraction (XRPD) and thermogravimetric analysis (TGA).
Experiment 6: Desolvation: New forms of Compound (VII) obtained in the polymorph screen suspected of being solvates were subjected to further form investigation through attempted desolvation. Forms D, E, F, G, H, I, J, K, L and Hydrate A were left to stand open to the atmosphere under ambient conditions and or were placed in a vacuum oven. […] Forms D and K produced new crystalline XRPD patterns following desolvation. […] In some embodiments, Form R ({drug7p}) is characterized by one or more peaks in an XRPD spectrum selected from the peaks listed in Table 20. Form R ({drug7p}) Peak List:
In some embodiments, Form S ({drug7q}) is characterized by one or more peaks in an XRPDspectrum selected from the peaks listed in Table 21.

Data set [6] can be described thus: Salt screening and crystalline salt characterization of Compound (VI). To be noted: for Hygroscopicity: ambient temperature and relative humidity conditions.
Protocol: The screening examined acid type, acid level (equivalents), and/or type of crystallization solvent. Each plate contained 96 well plates (8 rows of 12 columns per plate). […] The solution (12.5 mL) was transferred to 24 vials. To each vial was added 0.25 M EtOH stock solutions of the following acids:
The content of each vial was transferred to 12 crystallization wells and evaporated to dryness. Upon evaporation, each well was charged with 100 µl of solvent using a robotic liquid handler. The following crystallization solvents were tested: methyl isobutyl ketone (MIBK), ethyl acetate, toluene, THF, acetonitrile, acetone, isopropanol, ethanol, methanol, 1,2-dichloroethylene, isopropanol/water (50:50), and water. Next, the plates were sealed with Teflon septa and subjected to temperature cycling. […] After the heating/cooling cycle, the contents of the wells were characterized by birefringent imaging. Perceived crystalline hits were further characterized by PXRD analysis.

For `N#Cc1ccc([C@H]2CCc3cncn32)c(F)c1` [Compound (III), 4-(R)-(6,7-Dihydro-5H-pyrrolo[1,2-c]imidazol-5-yl)-3-fluoro-benzonitrile], the Moisture gain reads like this: (r.h. 0%) 0.0%; (r.h. 5%) 0.0%; (r.h. 25%, listed as free base) 0.1%; (r.h. 50%, listed as free base) 0.2%; (r.h. 75%, listed as free base) 0.3%; (r.h. 85%, listed as free base) 0.5%. In addition, the Moisture gain (r.h. 95%, listed as free base) came out at 1.0%. Also, the solubility (as a rule, the concentration that dissolves in the medium under given conditions) in “physchem” (acetone, 25 °C, organic solvent or mixture) is greater than 50 mg/mL; in “physchem” (aqueous solvent, pH 1, 25 °C, pH 1, simulated gastric fluid, pH 1), greater than 50 mg/mL; in the data set “physchem” (ethanol, 25 °C, organic solvent or mixture) it was greater than 50 mg/mL; in “physchem” (ethyl acetate, 25 °C, organic solvent or mixture) it was greater than 50 mg/mL. Moreover, in data set [1], the “Solubility in water at the 0.1% target concentration” value is on record as “largely insoluble”.
Take `O=C1CCC(N2Cc3c(cccc3[N+](=O)[O-])C2=O)C(=O)N1` (centres unmarked) [Form A ({drug5b}), 3-(4-nitro-1-oxoisoindolin-2-yl)piperidine-2,6-dione]: the “Form conversion to other forms” value in data set [2] was “no conversion”. For the same compound, the total mass change in data set [3] turned out to be 0.42%.
Consider `NC1(C(=O)N[C@@H](CCO)c2ccc(Cl)cc2)CCN(c2ncnc3[nH]ccc23)CC1` [Form B, (S)-4-amino-N-(1-(4-chlorophenyl)-3-hydroxypropyl)-1-(7H-pyrrolo[2,3-d]pyrimidin-4-yl)piperidine-4-carboxamide], for which the “XRPD Result after form conversion experiment” value (“XRPD Result” below) in data set [4] (Heated to 220 °C for 4 hours) is reported as “Form A”.
For the compound `O=C1CCC(N2Cc3c(cccc3[N+](=O)[O-])C2=O)C(=O)N1` (centres unmarked) [Form C ({drug5d}), 3-(4-nitro-1-oxoisoindolin-2-yl)piperidine-2,6-dione], the “XRPD Result” value in data set [4] (Heated to 220 °C for 4 hours) is on record as “partially converts to Form A”. The Form conversion result in data set [4] (ambient temperature, NMP/acetone/water (1:2.5:2.5), time not stated) is given as “converts to Form A”. In data set [3], this compound registered a total mass change of 0.43%.
As for `NC1(C(=O)N[C@@H](CCO)c2ccc(Cl)cc2)CCN(c2ncnc3[nH]ccc23)CC1` [Form C, (S)-4-amino-N-(1-(4-chlorophenyl)-3-hydroxypropyl)-1-(7H-pyrrolo[2,3-d]pyrimidin-4-yl)piperidine-4-carboxamide], the “XRPD Result” value in data set [4] (Heated to 220 °C for 4 hours), in data set [4] (Slurry in NMP/Acetone/water at ambient for 5 days) and in data set [4] (Slurry in NMP/Acetone/water at ambient for 10 days) was “Form A+C” each time.
In the case of `CC(C)(C)c1cc(C(C)(C)C)c(NC(=O)c2c[nH]c3ccccc3c2=O)cc1O` [Form D ({drug7b}), N-[2,4-bis(1,1-dimethylethyl)-5-hydroxyphenyl]-1,4-dihydro-4-oxoquinoline-3-carboxamide], in data set [5] (ambient conditions and vacuum oven for approximately 1 month), the “XRPD pattern after attempted desolvation” value is “converted to a new crystalline form of Compound (VII) designated Form R”.
For the compound `CC(C)(C)c1cc(C(C)(C)C)c(NC(=O)c2c[nH]c3ccccc3c2=O)cc1O` [Form E ({drug7c}), N-[2,4-bis(1,1-dimethylethyl)-5-hydroxyphenyl]-1,4-dihydro-4-oxoquinoline-3-carboxamide], in data set [5] (standing under ambient conditions and sitting in the vacuum oven), the “XRPD pattern after attempted desolvation” value was “same XRPD patterns”.
In the case of `CC(C)(C)c1cc(C(C)(C)C)c(NC(=O)c2c[nH]c3ccccc3c2=O)cc1O` [Form G ({drug7e}), N-[2,4-bis(1,1-dimethylethyl)-5-hydroxyphenyl]-1,4-dihydro-4-oxoquinoline-3-carboxamide], the “XRPD pattern after attempted desolvation” value in data set [5] (vacuum oven for one month) is given as “became x-ray amorphous”.
As for `CC(C)(C)c1cc(C(C)(C)C)c(NC(=O)c2c[nH]c3ccccc3c2=O)cc1O` [Form H ({drug7f}), N-[2,4-bis(1,1-dimethylethyl)-5-hydroxyphenyl]-1,4-dihydro-4-oxoquinoline-3-carboxamide], the “XRPD pattern after attempted desolvation” value is “same Form H” in data set [5] (ambient conditions for one month) and “converted to a semi-crystalline form” in data set [5] (vacuum oven for one month).
For the compound `CC(C)(C)c1cc(C(C)(C)C)c(NC(=O)c2c[nH]c3ccccc3c2=O)cc1O` [Form K ({drug7i}), N-[2,4-bis(1,1-dimethylethyl)-5-hydroxyphenyl]-1,4-dihydro-4-oxoquinoline-3-carboxamide], in data set [5] (ambient conditions and vacuum oven for 2 months), the “XRPD pattern after attempted desolvation” value is on record as “converted to a new crystalline form of Compound (VII) designated Form S”.
`CC(C)(C)c1cc(C(C)(C)C)c(NC(=O)c2c[nH]c3ccccc3c2=O)cc1O` [Form L ({drug7j}), N-[2,4-bis(1,1-dimethylethyl)-5-hydroxyphenyl]-1,4-dihydro-4-oxoquinoline-3-carboxamide]: the “XRPD pattern after attempted desolvation” value is reported as “same Form L” in data set [5] (ambient conditions for two weeks) and “converted to x-ray amorphous” in data set [5] (vacuum oven for 24 hours).
For `N#Cc1ccc([C@H]2CCc3cncn32)c(F)c1` [HCl, 4-(R)-(6,7-dihydro-5H-pyrrolo[1,2-c]imidazol-5-yl)-3-fluoro-benzonitrile, reference compound], the Moisture gain reads like this: (r.h. 25%) 0.5%; (r.h. 50%) 0.2%; (r.h. 75%) 0.2%; (r.h. 85%) 3.3%; (r.h. 95%) 23.6%.
Turning to `Cl` [Hydrochloric acid], the Hygroscopicity result in data set [6] was “Crystalline salt; crystals were hygroscopic at ambient temperatures and relative humidity conditions; crystalline salt samples included multiple hydration states and multiple crystalline forms. Solid state NMR indicated that prepared samples contained mixture of crystalline phases”; in data set [6] (listed as hydrochloric acid salt), “hygroscopic”.
Take Citric acid: the Hygroscopicity entry in data set [6] was “Crystalline salt; hygroscopic at ambient temperature and relative humidity conditions. PXRD patterns of slurry and dried material did not match”; in data set [6] (listed as citric acid salt), “hygroscopic”.
In the case of Fumaric acid, the “water content of samples” value in data set [6] (>25% relative humidity) was roughly 6 wt. %. The Hygroscopicity result in data set [6] is “hygroscopic at ambient temperature and relative humidity conditions”; in data set [6] (listed as fumaric acid salt), “hygroscopic”.
